Source: paper PMC10887160, “Phanogracilins A–C, New Bibenzochromenones of Crinoid Phanogenia gracilis (Hartlaub, 1890)” (Biomolecules, 2024)

What was measured:
[1] = molecular target: T1, Homo sapiens CYP51 (Homo sapiens, UniProt Q16850); experiment: surface plasmon resonance; assay type: binding
T1 construct: gene CYP51A1; recombinant, immobilised on CM5 SPR chip
T1 sequence (Q16850 1-509): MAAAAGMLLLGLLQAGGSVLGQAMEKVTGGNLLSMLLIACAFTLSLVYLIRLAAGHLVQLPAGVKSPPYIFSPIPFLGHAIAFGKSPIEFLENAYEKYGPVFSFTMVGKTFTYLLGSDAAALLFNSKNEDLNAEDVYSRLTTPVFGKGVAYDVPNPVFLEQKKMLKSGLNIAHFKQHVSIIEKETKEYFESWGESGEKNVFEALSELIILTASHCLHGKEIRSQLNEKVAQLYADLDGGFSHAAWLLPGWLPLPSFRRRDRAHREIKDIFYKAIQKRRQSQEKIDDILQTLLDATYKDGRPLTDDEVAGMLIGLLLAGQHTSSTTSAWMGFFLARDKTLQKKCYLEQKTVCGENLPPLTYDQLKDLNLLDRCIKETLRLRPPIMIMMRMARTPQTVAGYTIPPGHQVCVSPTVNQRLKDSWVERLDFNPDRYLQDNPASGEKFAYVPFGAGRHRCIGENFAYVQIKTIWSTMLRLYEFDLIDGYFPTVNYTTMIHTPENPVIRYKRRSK

[2] = molecular target: T2, Mycobacterium tuberculosis CYP125 (Mycobacterium tuberculosis, UniProt P9WPP1); experiment: surface plasmon resonance; assay type: binding
T2 sequence (P9WPP1 whole entry): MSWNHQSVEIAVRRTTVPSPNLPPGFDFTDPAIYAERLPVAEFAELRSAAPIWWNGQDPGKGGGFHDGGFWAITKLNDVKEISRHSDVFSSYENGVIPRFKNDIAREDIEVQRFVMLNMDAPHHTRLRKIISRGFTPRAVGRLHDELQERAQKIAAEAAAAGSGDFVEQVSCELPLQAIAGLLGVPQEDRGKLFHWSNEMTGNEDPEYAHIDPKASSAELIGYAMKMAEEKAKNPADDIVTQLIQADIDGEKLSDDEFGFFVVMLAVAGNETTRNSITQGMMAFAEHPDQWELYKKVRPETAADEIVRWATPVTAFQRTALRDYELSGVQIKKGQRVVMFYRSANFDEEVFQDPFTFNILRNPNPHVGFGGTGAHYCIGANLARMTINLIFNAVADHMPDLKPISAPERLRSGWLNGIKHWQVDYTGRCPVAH

[3] = molecular target: T3, Mycobacterium tuberculosis CYP126 (Mycobacterium tuberculosis, UniProt P9WPN9); experiment: biochemical; design: SPR (Biacore, CM5 chip, immobilised CYP), two-state reaction model, global fit KD
T3 sequence (P9WPN9 whole entry): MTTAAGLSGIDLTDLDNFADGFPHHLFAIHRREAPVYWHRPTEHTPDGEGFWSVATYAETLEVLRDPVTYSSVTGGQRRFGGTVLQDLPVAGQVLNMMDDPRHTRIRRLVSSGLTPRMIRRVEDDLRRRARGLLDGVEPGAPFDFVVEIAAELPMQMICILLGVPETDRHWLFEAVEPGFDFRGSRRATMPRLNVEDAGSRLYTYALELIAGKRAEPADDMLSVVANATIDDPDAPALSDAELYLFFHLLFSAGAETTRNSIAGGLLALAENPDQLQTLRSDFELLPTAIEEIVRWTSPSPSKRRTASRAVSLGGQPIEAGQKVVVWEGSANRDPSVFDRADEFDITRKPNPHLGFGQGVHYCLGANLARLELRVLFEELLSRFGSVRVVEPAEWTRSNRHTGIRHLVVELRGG
Protocol: (§1) Cytochrome P450 and steroid dehydrogenases are pharmaceutically significant drug targets. However, for most of these targets, there is no effective, selective and safe regulator. In this regard, many laboratories and pharmaceutical companies around the world are working on producing selective modulators of cytochrome P450 and human steroid dehydrogenase. […] Injection of a solution of ligands (studied CYPs) in immobilization buffer (10 mM sodium acetate, pH 4.5 in the case of CYP51 Candida albicans and Candida glabrata; 10 mM sodium acetate, pH 5.0 in the case of all other CYPs) was carried out for 5 min at flow rate 5 µL/min. After this, the chip was incubated for 1 hour in a docked state in the “Stand By” device mode at a measuring cell temperature of 25°C, which led to the hydrolysis of unreacted activated dextran groups. Table S4. The amount of the ligand immobilized on the chip. MT - Mycobacterium tuberculosis, human - Homo sapiens, Calb - Candida albicans, Cglab - Candida glabrata Ligands The amount of the ligand immobilized, RU CYP51_MT 5499 CYP124_MT 3315 CYP125_MT 5730 CYP126_MT 4590 CYP142_MT 2445 CYP51_human 8286 CYP51_Calb 2603 CYP51_Cglab 4888

[4] = molecular target: T4, Mycobacterium tuberculosis CYP51 (Mycobacterium tuberculosis, UniProt P9WPP9); experiment: biochemical; design: SPR (Biacore, CM5 chip, immobilised CYP), two-state reaction model, global fit KD
T4 sequence (P9WPP9 whole entry): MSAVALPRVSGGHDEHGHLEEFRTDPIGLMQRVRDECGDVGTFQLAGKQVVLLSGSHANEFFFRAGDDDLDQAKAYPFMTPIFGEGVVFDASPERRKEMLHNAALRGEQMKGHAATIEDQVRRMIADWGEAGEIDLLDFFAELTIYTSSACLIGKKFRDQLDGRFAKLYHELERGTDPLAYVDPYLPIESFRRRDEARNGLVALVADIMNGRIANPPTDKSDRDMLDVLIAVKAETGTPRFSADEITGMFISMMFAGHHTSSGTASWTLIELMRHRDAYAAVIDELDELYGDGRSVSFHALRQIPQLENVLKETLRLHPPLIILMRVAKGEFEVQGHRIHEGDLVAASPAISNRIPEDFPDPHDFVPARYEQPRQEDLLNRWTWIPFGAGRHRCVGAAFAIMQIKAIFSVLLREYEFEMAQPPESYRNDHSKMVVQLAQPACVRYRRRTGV
Protocol: as §1

[5] = molecular target: T2, Mycobacterium tuberculosis CYP125; experiment: biochemical; design: SPR (Biacore, CM5 chip, immobilised CYP), two-state reaction model, global fit KD
Protocol: as §1

[6] = molecular target: T5, Candida glabrata CYP51 (Nakaseomyces glabratus, UniProt P50859); experiment: biochemical; design: SPR (Biacore, CM5 chip, immobilised CYP), two-state reaction model, global fit KD; conditions: SPR, two-state model; read-out: KD (мкM)
T5 construct: gene ERG11; recombinant, immobilised on CM5 SPR chip
T5 sequence (P50859 whole entry): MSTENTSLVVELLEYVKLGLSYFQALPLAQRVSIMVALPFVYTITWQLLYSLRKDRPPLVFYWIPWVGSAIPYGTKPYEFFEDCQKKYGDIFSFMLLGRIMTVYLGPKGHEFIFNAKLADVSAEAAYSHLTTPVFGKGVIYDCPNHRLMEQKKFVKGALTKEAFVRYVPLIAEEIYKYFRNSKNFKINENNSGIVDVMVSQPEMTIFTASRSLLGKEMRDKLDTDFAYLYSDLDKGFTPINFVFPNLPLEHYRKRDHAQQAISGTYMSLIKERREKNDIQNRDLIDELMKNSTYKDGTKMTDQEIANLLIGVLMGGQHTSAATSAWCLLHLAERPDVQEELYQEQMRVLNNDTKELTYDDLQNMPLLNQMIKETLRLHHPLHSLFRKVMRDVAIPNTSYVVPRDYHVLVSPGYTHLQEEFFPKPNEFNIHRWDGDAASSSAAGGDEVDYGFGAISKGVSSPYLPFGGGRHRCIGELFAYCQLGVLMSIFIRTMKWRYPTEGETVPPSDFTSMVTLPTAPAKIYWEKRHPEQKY
Protocol: as §1

[7] = molecular target: T6, Candida albicans CYP51 (Candida albicans, UniProt P10613); experiment: surface plasmon resonance; assay type: binding
T6 construct: gene ERG11; recombinant, immobilised on CM5 SPR chip
T6 sequence (P10613 whole entry): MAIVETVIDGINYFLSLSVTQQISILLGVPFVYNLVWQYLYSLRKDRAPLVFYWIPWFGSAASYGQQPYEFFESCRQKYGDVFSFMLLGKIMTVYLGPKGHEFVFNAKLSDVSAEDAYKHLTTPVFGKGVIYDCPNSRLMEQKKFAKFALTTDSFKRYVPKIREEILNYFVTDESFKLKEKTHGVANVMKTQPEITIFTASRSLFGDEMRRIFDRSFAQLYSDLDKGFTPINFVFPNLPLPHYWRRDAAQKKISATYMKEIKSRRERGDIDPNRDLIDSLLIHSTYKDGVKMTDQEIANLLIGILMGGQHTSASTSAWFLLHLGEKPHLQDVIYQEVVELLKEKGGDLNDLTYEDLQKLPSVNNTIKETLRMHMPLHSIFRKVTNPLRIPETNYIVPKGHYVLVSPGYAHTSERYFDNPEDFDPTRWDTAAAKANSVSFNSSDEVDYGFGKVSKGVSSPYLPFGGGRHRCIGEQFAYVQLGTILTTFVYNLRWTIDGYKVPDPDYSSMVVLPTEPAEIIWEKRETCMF

[8] = molecular target: Mycobacterium tuberculosis CYP142 (Mycobacterium tuberculosis, UniProt P9WPL5); experiment: surface plasmon resonance; assay type: binding
Chain of Mycobacterium tuberculosis CYP142 (P9WPL5 whole entry): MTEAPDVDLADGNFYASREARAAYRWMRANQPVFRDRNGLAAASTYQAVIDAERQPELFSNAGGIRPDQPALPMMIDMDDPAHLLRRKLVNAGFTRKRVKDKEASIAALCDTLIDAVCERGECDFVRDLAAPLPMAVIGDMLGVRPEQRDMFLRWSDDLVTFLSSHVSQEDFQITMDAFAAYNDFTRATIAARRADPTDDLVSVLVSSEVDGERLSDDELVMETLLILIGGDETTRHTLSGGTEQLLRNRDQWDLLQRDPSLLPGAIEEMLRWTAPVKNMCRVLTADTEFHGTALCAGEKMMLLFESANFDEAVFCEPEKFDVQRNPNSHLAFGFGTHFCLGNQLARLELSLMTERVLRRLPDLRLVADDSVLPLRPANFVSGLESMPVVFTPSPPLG

[9] = molecular target: T3, Mycobacterium tuberculosis CYP126; experiment: surface plasmon resonance; assay type: binding
[10] = molecular target: T4, Mycobacterium tuberculosis CYP51; experiment: surface plasmon resonance; assay type: binding
[11] = molecular target: T5, Candida glabrata CYP51; experiment: surface plasmon resonance; assay type: binding
[12] = molecular target: Mycobacterium tuberculosis CYP124 (Mycobacterium tuberculosis, UniProt P9WPP3); experiment: surface plasmon resonance; assay type: binding
Chain of Mycobacterium tuberculosis CYP124 (P9WPP3 whole entry): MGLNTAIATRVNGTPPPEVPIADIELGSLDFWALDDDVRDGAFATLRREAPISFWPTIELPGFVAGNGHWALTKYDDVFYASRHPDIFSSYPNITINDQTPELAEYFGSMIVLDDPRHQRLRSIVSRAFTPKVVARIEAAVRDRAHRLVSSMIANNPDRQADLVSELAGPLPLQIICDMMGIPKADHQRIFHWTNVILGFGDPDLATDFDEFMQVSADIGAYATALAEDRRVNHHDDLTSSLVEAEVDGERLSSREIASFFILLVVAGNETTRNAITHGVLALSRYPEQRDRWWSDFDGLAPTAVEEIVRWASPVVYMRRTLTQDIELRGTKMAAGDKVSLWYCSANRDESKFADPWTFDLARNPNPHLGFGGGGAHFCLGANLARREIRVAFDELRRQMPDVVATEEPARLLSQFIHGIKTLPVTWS

CCCc1cc(=O)c2c(O)c3c(O)c(-c4c(O)cc(O)c5c(O)c6c(=O)cc(CCC)oc6cc45)c(O)cc3cc2o1 [compound 1, 5,5′,6,6′,8,8′-hexahydroxy-2,2′-dipropyl-4H,4′H-[7,9′-bibenzo[g]chromene]-4,4′-dione]
Kd [1]: > 10 µM | Kd [2]: > 10 µM | Kd [3]: 60.5 µM | Kd [4]: 67.3 µM | Kd [5]: 55.3 µM | Kd [6]: 93.9 µM | Kd [7]: > 10 µM | Kd [8]: > 10 µM | Kd [9]: > 10 µM | Kd [10]: > 10 µM | Kd [11]: > 10 µM | Kd [12]: > 10 µM
